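Five compound concentrations were applied to cells in 96-well plates for 48 hours; endpoints were derived by simple linear interpolation of the resulting dose-response curve. TGI: concentration producing complete growth inhibition.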 Where only a bound is given, the exact number is not on record here.

For one assay, the system named is 786-0 renal. As to the kind of experiment: NCI anticancer screen, dose series, 48 h.
Compound `O=C(/C=C/c1csc(-c2ccccc2)n1)NCc1ccc(C(=O)NCCc2ccccc2)cc1` displayed a TGI of 32.7 µM.
For the compound `CC(=O)N1C(c2[nH]c3ccccc3c2-c2ccccc2)CCN1c1ccccc1` (configuration not stated), the TGI is above 10 µM.
Consider `COc1cccc(-c2c(C#N)c(N)nc3c2CCS(=O)(=O)c2ccc(C)cc2-3)c1`, for which the TGI is above 100 µM.
Same read-out and setting: for `CC(=O)N1C(Nc2ccccn2)CCN1c1ccccc1` (configuration not stated) the value was above 10 µM.
On the same count and under the same terms, for `CC12CCC(CC1=O)C2(C)CCC(N)=O` (configuration not stated) the value was above 100 µM; for `CCNCCNc1c2ccccc2nc2ccccc12`, 13.4 µM.
The same measure, in the same setting: for `CCOP(=O)(OCC)C1CC(O)C(=O)N1` (configuration not stated) the value was above 100 µM.
The compound `COC(=O)C(CC12CC3CC(CC(C3)C1)C2)NC(=O)C(N)CC(=O)O` (configuration not stated) showed a TGI above 100 µM.
The same measure, in the same setting: for `Cc1nc2cccc(F)c2c(=O)n1C1CCCCNC1=O` (configuration not stated) the value was above 10 µM; for `N=c1oc2cc(O)ccc2cc1C(=O)NCc1ccccc1`, above 100 µM.
On the same count and under the same terms, for `C=CCOc1ccc(/C(N=Nc2ccc(Cl)cc2)=N/NC(=O)c2ccccc2)cc1OC` the value was above 100 µM; for `COc1ccc(/C=C2\NC(=S)N(CN3CCCCC3)C2=O)cc1`, above 100 µM; for `Cc1ccc(C2=Nc3cccc4cccc(c34)N2)cc1`, above 100 µM.
As for `COC(=O)c1ccccc1CC1Cc2ccc3c(c2C1=O)CCC3` (configuration not stated), the TGI is above 100 µM.
On the same count and under the same terms, then `C[n+]1c2ccccc2c(C(=O)Nc2ccc(S(=O)(=O)Nc3ccnn3-c3ccccc3)cc2)c2ccccc21`, with above 100 µM.

A further assay has as its system UACC-257 melanoma. As to the kind of experiment: NCI anticancer screen, dose series, 48 h.
In turn, `O=C(/C=C/c1csc(-c2ccccc2)n1)NCc1ccc(C(=O)NCCc2ccccc2)cc1` registered a TGI above 100 µM.
Compound `CC(=O)N1C(c2[nH]c3ccccc3c2-c2ccccc2)CCN1c1ccccc1` (configuration not stated) registered a TGI above 10 µM.
Same read-out and setting: for `COc1cccc(-c2c(C#N)c(N)nc3c2CCS(=O)(=O)c2ccc(C)cc2-3)c1` the value was above 100 µM.
For the compound `CC(=O)N1C(Nc2ccccn2)CCN1c1ccccc1` (configuration not stated), the TGI was above 10 µM.
On the same count and under the same terms, for `CC12CCC(CC1=O)C2(C)CCC(N)=O` (configuration not stated) the value was above 100 µM; for `CCNCCNc1c2ccccc2nc2ccccc12`, 3.46 µM.
The compound `CCOP(=O)(OCC)C1CC(O)C(=O)N1` (configuration not stated) yielded a TGI above 100 µM.
In turn, `COC(=O)C(CC12CC3CC(CC(C3)C1)C2)NC(=O)C(N)CC(=O)O` (configuration not stated) had a TGI above 100 µM.
Still for that read-out and setting: for `Cc1nc2cccc(F)c2c(=O)n1C1CCCCNC1=O` (configuration not stated) the value was above 10 µM; for `N=c1oc2cc(O)ccc2cc1C(=O)NCc1ccccc1`, above 100 µM.
Still for that read-out and setting: then `C=CCOc1ccc(/C(N=Nc2ccc(Cl)cc2)=N/NC(=O)c2ccccc2)cc1OC`, with above 100 µM.
Compound `Cc1ccc(C2=Nc3cccc4cccc(c34)N2)cc1` had a TGI above 100 µM.
As for `COC(=O)c1ccccc1CC1Cc2ccc3c(c2C1=O)CCC3` (configuration not stated), the TGI was above 100 µM.
`C[n+]1c2ccccc2c(C(=O)Nc2ccc(S(=O)(=O)Nc3ccnn3-c3ccccc3)cc2)c2ccccc21` displayed a TGI above 100 µM.

Another assay deals with SF-539 CNS. As to the kind of experiment: NCI anticancer screen, dose series, 48 h.
On to `CC(=O)N1C(c2[nH]c3ccccc3c2-c2ccccc2)CCN1c1ccccc1` (configuration not stated), for which the TGI was above 10 µM.
`CC(=O)N1C(Nc2ccccn2)CCN1c1ccccc1` (configuration not stated): the TGI is above 10 µM.
The compound `CCNCCNc1c2ccccc2nc2ccccc12` yielded a TGI of 2.21 µM.
Same read-out and setting: then `Cc1nc2cccc(F)c2c(=O)n1C1CCCCNC1=O` (configuration not stated), with above 10 µM; and `N=c1oc2cc(O)ccc2cc1C(=O)NCc1ccccc1`, with 63.3 µM; and `Cc1ccc(C2=Nc3cccc4cccc(c34)N2)cc1`, with above 100 µM.
On the same count and under the same terms, then `COC(=O)c1ccccc1CC1Cc2ccc3c(c2C1=O)CCC3` (configuration not stated), with above 100 µM.
Still for that read-out and setting: for `C[n+]1c2ccccc2c(C(=O)Nc2ccc(S(=O)(=O)Nc3ccnn3-c3ccccc3)cc2)c2ccccc21` the value was above 100 µM.

A further assay concerns MDA-MB-435. As to the kind of experiment: NCI anticancer screen, dose series, 48 h.
As for `O=C(/C=C/c1csc(-c2ccccc2)n1)NCc1ccc(C(=O)NCCc2ccccc2)cc1`, the TGI was above 100 µM.
Still for that read-out and setting: then `CC(=O)N1C(c2[nH]c3ccccc3c2-c2ccccc2)CCN1c1ccccc1` (configuration not stated), with above 10 µM; and `COc1cccc(-c2c(C#N)c(N)nc3c2CCS(=O)(=O)c2ccc(C)cc2-3)c1`, with above 100 µM.
The same measure, in the same setting: for `CC(=O)N1C(Nc2ccccn2)CCN1c1ccccc1` (configuration not stated) the value was above 10 µM.
Same read-out and setting: then `CC12CCC(CC1=O)C2(C)CCC(N)=O` (configuration not stated), with above 100 µM; and `CCNCCNc1c2ccccc2nc2ccccc12`, with 2.59 µM.
`CCOP(=O)(OCC)C1CC(O)C(=O)N1` (configuration not stated) came in with a TGI above 100 µM.
In turn, `COC(=O)C(CC12CC3CC(CC(C3)C1)C2)NC(=O)C(N)CC(=O)O` (configuration not stated) displayed a TGI above 100 µM.
Same read-out and setting: for `Cc1nc2cccc(F)c2c(=O)n1C1CCCCNC1=O` (configuration not stated) the value was above 10 µM; for `N=c1oc2cc(O)ccc2cc1C(=O)NCc1ccccc1`, 58.3 µM; for `C=CCOc1ccc(/C(N=Nc2ccc(Cl)cc2)=N/NC(=O)c2ccccc2)cc1OC`, above 100 µM.
Turning to `COc1ccc(/C=C2\NC(=S)N(CN3CCCCC3)C2=O)cc1`, the TGI is above 100 µM.
`Cc1ccc(C2=Nc3cccc4cccc(c34)N2)cc1` came in with a TGI above 100 µM.
On the same count and under the same terms, for `COC(=O)c1ccccc1CC1Cc2ccc3c(c2C1=O)CCC3` (configuration not stated) the value was 78.7 µM.
Still for that read-out and setting: for `C[n+]1c2ccccc2c(C(=O)Nc2ccc(S(=O)(=O)Nc3ccnn3-c3ccccc3)cc2)c2ccccc21` the value was above 100 µM.

Another assay deals with A498 renal. As to the kind of experiment: NCI anticancer screen, dose series, 48 h.
The compound `O=C(/C=C/c1csc(-c2ccccc2)n1)NCc1ccc(C(=O)NCCc2ccccc2)cc1` gave a TGI of 64.8 µM.
For the compound `COc1cccc(-c2c(C#N)c(N)nc3c2CCS(=O)(=O)c2ccc(C)cc2-3)c1`, the TGI is above 100 µM.
The same measure, in the same setting: for `CC12CCC(CC1=O)C2(C)CCC(N)=O` (configuration not stated) the value was above 100 µM.
Same read-out and setting: then `CCOP(=O)(OCC)C1CC(O)C(=O)N1` (configuration not stated), with above 100 µM; and `C=CCOc1ccc(/C(N=Nc2ccc(Cl)cc2)=N/NC(=O)c2ccccc2)cc1OC`, with above 100 µM; and `COc1ccc(/C=C2\NC(=S)N(CN3CCCCC3)C2=O)cc1`, with above 100 µM.

The next assay relates to UACC-62 melanoma. As to the kind of experiment: NCI anticancer screen, dose series, 48 h.
`O=C(/C=C/c1csc(-c2ccccc2)n1)NCc1ccc(C(=O)NCCc2ccccc2)cc1` showed a TGI above 100 µM.
The same measure, in the same setting: for `COc1cccc(-c2c(C#N)c(N)nc3c2CCS(=O)(=O)c2ccc(C)cc2-3)c1` the value was above 100 µM; for `CC12CCC(CC1=O)C2(C)CCC(N)=O` (configuration not stated), above 100 µM; for `CCNCCNc1c2ccccc2nc2ccccc12`, 3.26 µM.
Still for that read-out and setting: then `CCOP(=O)(OCC)C1CC(O)C(=O)N1` (configuration not stated), with above 100 µM.
As to `COC(=O)C(CC12CC3CC(CC(C3)C1)C2)NC(=O)C(N)CC(=O)O` (configuration not stated), the TGI was above 100 µM.
Same read-out and setting: for `Cc1nc2cccc(F)c2c(=O)n1C1CCCCNC1=O` (configuration not stated) the value was above 10 µM; for `C=CCOc1ccc(/C(N=Nc2ccc(Cl)cc2)=N/NC(=O)c2ccccc2)cc1OC`, above 100 µM.
In the case of `COc1ccc(/C=C2\NC(=S)N(CN3CCCCC3)C2=O)cc1`, the TGI is above 100 µM.

Source of the values: PubChem BioAssay (NCI).
